Measured values: patent US12459951B2, “Compounds that interact with RAS superfamily proteins for treatment of cancers, inflammatory diseases, rasopathies, and fibrotic disease” (SHY Therapeutics, LLC, priority 2022, dated 2025)
Structures can show the parent of a compound that is named as a salt.

Columns and labels:
[1] = system: Erk1/2 phosphorylation; assay: Erk1/2 Phosphorylation Assay (western blot), Panc-1; format: cell-based, human; conditions: at 10 μM, * = activation
Experimental: Protocol for Western Erk1/2 Cell-Based Phosphorylation Assay
This assay is referred to as the “Erk1/2 Phosphorylation Assay” throughout this application.
(§1) Cell lines: Human tumor-derived pancreatic cancer cell line Panc-1 (expressing KRas G12D mutant) was purchased from American Type Culture Collection and grown in complete DMEM-High Glucose medium, supplemented with penicillin (100 U/mL), streptomycin (100 μg/mL), and 10% heat-inactivated FBS at 37° C. in a humidified incubator with 5% CO2.
(§2) Method 1: Cells were plated at 350000 cells/well density in a 12-well plate, allowed 3 hours to adhere to the plate, then starved in the appropriate medium in the presence of 0.5% FBS overnight. The small molecules to be tested were added to the cells in the final concentration of 10 μM in the presence of 0.3% DMSO for 6 hours incubation at 37° C. For IC50 value determination, serial dilutions of compounds were added to cells under the same conditions. Next, cells were stimulated with 1.5 ng/ml EGF for 15 minutes then cells were lysed with lysis buffer containing 1% Triton X-100, EDTA, and Halt™ Protease & Phosphatase Inhibitor Cocktail (Thermo Scientific). Protein concentration was assessed by BCA protein assay (Thermo Scientific). Phosphorylation level of Erk1/2 was determined by western blot.
(§3) Method 2: Cells were plated at 350000 cells/well density in a 12-well plate in 10% FBS. The next day small molecules to be tested were added to the cells in the final concentration of 10 μM in the presence of 0.3% DMSO for 6 hours incubation at 37° C. For IC50 value determination, serial dilutions of compounds were added to cells under the same conditions. Next, cells were lysed with lysis buffer containing 1% Triton X-100, EDTA, and Halt™ Protease & Phosphatase Inhibitor Cocktail (Thermo Scientific). Protein concentration was assessed by BCA protein assay (Thermo Scientific). Phosphorylation level of Erk1/2 was determined by western blot.
(§4) Western blot protocol: Equal amounts of protein (15-50 μg) were separated by SDS-PAGE and transferred to nitrocellulose membranes (Invitrogen by Thermo Fisher Scientific). The membrane was stained with Ponceau S Stain (Boston BioProducts) to verify uniform protein loading. Membranes were blocked with 10% milk and phosphorylation levels of Erk1/2 were assessed by incubating overnight at 4° C. with anti-phospho-p44/42 (Thr202/Tyr204) antibody (Cell Signaling) followed by HRP-conjugated secondary antibody (Jackson Immunoresearch, West Grove, PA). Bands were incubated in Amersham ECL Prime Western Blotting Detection Reagent (GE Healthcare) and visualized using the ChemiDoc MP imaging system (Bio-Rad).

[2] = system: Akt phosphorylation; assay: Akt Phosphorylation Assay (western blot), Panc-1; format: cell-based, human; conditions: at 10 μM, * = activation
Experimental: Protocol for Western Akt Cell-Based Phosphorylation Assay
This assay is referred to as the “Akt Phosphorylation Assay” throughout this application.
as §1, with “Human” for “Cell lines: Human”, “Glucose” for “Glucose medium,”
as §2, with “C.” for “C. For IC50 value determination, serial dilutions of compounds were added to cells under the same conditions.”, “Akt” for “Erk1/2”
as §3, with “Akt” for “Erk1/2”
as §4, with “Akt” for “Erk1/2”, “anti-phospho-Akt (Ser473)” for “anti-phospho-p44/42 (Thr202/Tyr204)”

[3] = system: IL6; assay: IL-6 Quantification Assay (ELISA), LPS-stimulated RAW 264.7; format: cell-based; design: inhibition: dose or concentration left out as unconfirmed; conditions: Mus musculus, RAW264.7; read-out: IL-6: % inh.
[4] = system: TNF-alpha; assay: TNF-alpha Quantification Assay (ELISA), LPS-stimulated RAW 264.7; format: cell-based; conditions: Mus musculus, RAW264.7; at 10 μM; read-out: TNFα: % inh.

| SMILES | % inh of Erk1/2 phosphorylation in Panc-1 [1] | % inh of Akt phosphorylation in Panc-1 [2] | inhibition [3] | inhibition at 10 µM [4] |
| --- | --- | --- | --- | --- |
| COc1cc(Nc2nc(-c3nccn3C)nn3cc(-c4ccn(C(F)F)n4)c(C)c23)ncn1 [Compound 98, 6-(1-(Difluoromethyl)-1H-pyrazol-3-yl)-N-(6-methoxypyrimidin-4-yl)-5-methyl-2-(1-methyl-1H-imidazol-2-yl)pyrrolo[2,1-f][1,2,4]triazin-4-amine] | D* (85-100% activation) | D* (85-100% activation) | 1 to 24% | 0% |
| Cc1c(-c2ccn(C)n2)cn2nc(-c3nccn3C)nc(Nc3cc(C4CC4)[nH]n3)c12 [Compound 104, N-(5-Cyclopropyl-1H-pyrazol-3-yl)-5-methyl-2-(1-methyl-1H-imidazol-2-yl)-6-(1-methyl-1H-pyrazol-3-yl)pyrrolo[2,1-f][1,2,4]triazin-4-amine] | D* (85-100% activation) | D* (85-100% activation) | 75 to 100% | 0% |
| Cc1c(-c2ccn(C)n2)cn2nc(-c3nccn3C)nc(Nc3n[nH]c(C4CC4)n3)c12 [Compound 113, N-(5-Cyclopropyl-1H-1,2,4-triazol-3-yl)-5-methyl-2-(1-methyl-1H-imidazol-2-yl)-6-(1-methyl-1H-pyrazol-3-yl)pyrrolo[2,1-f][1,2,4]triazin-4-amine] | D* (85-100% activation) | D* (85-100% activation) | 75 to 100% | 25 to 49% |
| COCCO[C@H]1C[C@H](Nc2nc(-c3nccn3C)nn3cc(-c4cccnc4)c(C)c23)C1 [Compound 152, N-((1r,3r)-3-(2-methoxyethoxy)cyclo-butyl)-5-methyl-2-(1-methyl-1H-imidazol-2-yl)-6-(pyridin-3-yl)pyrrolo[2,1-f][1,2,4]triazin-4-amine] | B* (26-49% activation) | B* (26-49% activation) | 1 to 24% | 0% |
| Cc1c(-c2ccn(C3CC3)n2)cn2nc(-c3nccn3C)nc(Nc3cc(OC(F)F)ccn3)c12 [Compound 139, 6-(1-Cyclopropyl-1H-pyrazol-3-yl)-N-(4-(difluoromethoxy)pyridin-2-yl)-5-methyl-2-(1-methyl-1H-imidazol-2-yl)pyrrolo[2,1-f][1,2,4]triazin-4-amine] | D* (85-100% activation) | D* (85-100% activation) | 50 to 74% | 1 to 24% |
| COc1cc(-c2cn3nc(-c4nccn4C)nc(N[C@@H]4CC[C@H](OC)C4)c3c2C)ccn1 (racemic) [Compound 164, rac N-((1R,3S)-3-Methoxycyclopentyl)-6-(2-methoxypyridin-4-yl)-5-methyl-2-(1-methyl-1H-imidazol-2-yl)pyrrolo[2,1-f][1,2,4]triazin-4-amine] | A* (1-25% activation) | A* (1-25% activation) | 75 to 100% | 1 to 24% |
| Cc1c(-c2cccnc2)cn2nc(-c3nccn3C)nc(Nc3ccncn3)c12 [Compound 156, 5-Methyl-2-(1-methyl-1H-imidazol-2-yl)-6-(pyridin-3-yl)-N-(pyrimidin-4-yl)pyrrolo[2,1-f][1,2,4]triazin-4-amine] | D* (85-100% activation) | D* (85-100% activation) | 1 to 24% | 0% |
| CO[C@H]1C[C@H](Nc2nc(-c3nccn3C)nn3cc(-c4ccn(C)n4)c(C)c23)C1 [Compound 103, N-((1r,3r)-3-Methoxycyclobutyl)-5-methyl-2-(1-methyl-1H-imidazol-2-yl)-6-(1-methyl-1H-pyrazol-3-yl)pyrrolo[2,1-f][1,2,4]triazin-4-amine hydrochloride salt] | A* (1-25% activation) | C* (46-84% activation) | 0% | 0% |
| Cc1c(-c2ccn(C3CC3)n2)cn2nc(-c3nccn3C)nc(Nc3cc(OCCCO)ccn3)c12 [Compound 149, 3-((2-((6-(1-Cyclopropyl-1H-pyrazol-3-yl)-5-methyl-2-(1-methyl-1H-imidazol-2-yl)pyrrolo[2,1-f][1,2,4]triazin-4-yl)amino)pyridin-4-yl)oxy)propan-1-ol] | D* (85-100% activation) | D* (85-100% activation) | 75 to 100% | 75 to 100% |
| COCCOc1cc(Nc2nc(-c3nccn3C)nn3cc(-c4ccn(C(C)C)n4)c(C)c23)ncn1 [Compound 122, 6-(1-Isopropyl-1H-pyrazol-3-yl)-N-(6-(2-methoxyethoxy)pyrimidin-4-yl)-5-methyl-2-(1-methyl-1H-imidazol-2-yl)pyrrolo[2,1-f][1,2,4]triazin-4-amine] | A* (1-25% activation) | C* (46-84% activation) | 50 to 74% | 1 to 24% |
| Cc1c(-c2ccn(C)n2)cn2nc(-c3nccn3C)nc(Nc3nnco3)c12.Cl [Compound 119, N-(5-Methyl-2-(1-methyl-1H-imidazol-2-yl)-6-(1-methyl-1H-pyrazol-3-yl)pyrrolo[2,1-f][1,2,4]triazin-4-yl)-1,3,4-oxadiazol-2-amine hydrochloride salt] | A* (1-25% activation) | D* (85-100% activation) | 50 to 74% | 25 to 49% |
| Cc1c(-c2ccn(C)n2)cn2nc(-c3nccn3C)nc(Nc3ccncn3)c12.Cl [Compound 116, 5-Methyl-2-(1-methyl-1H-imidazol-2-yl)-6-(1-methyl-1H-pyrazol-3-yl)-N-(pyrimidin-4-yl)pyrrolo[2,1-f][1,2,4]triazin-4-amine hydrochloride salt] | D* (85-100% activation) | D* (85-100% activation) | 25 to 49% | 0% |
| COc1cc(-c2cn3nc(-c4nccn4C)nc(N[C@@H]4CC[C@@H](OC)C4)c3c2C)ccn1 (racemic) [Compound 163, rac N-((1R,3R)-3-Methoxycyclopentyl)-6-(2-methoxypyridin-4-yl)-5-methyl-2-(1-methyl-1H-imidazol-2-yl)pyrrolo[2,1-f][1,2,4]triazin-4-amine] | A* (1-25% activation) | A* (1-25% activation) | 75 to 100% | 1 to 24% |
